Reference: a melting point compilation (Tetko et al.; mined from patent text by program, amines drawn as free bases though some values may be those of a salt)

SMILES	melting point
CCOC(=O)c1c(C)n(C)c(-c2ccccc2)cc1=O	154 °C
O=c1cc(-c2ccccc2)c2c([nH]1)CCCC2	285 to 288 °C
O=C(c1ccc(C2CCCCC2)cc1)N1Cc2ccc(C(=O)C(Cl)(Cl)Cl)n2Cc2ccccc21	172 to 174 °C
CCCC(C)NC1=NS(=O)(=O)c2cc(Cl)c(Cl)cc2N1 (stereo not drawn)	217 to 220 °C
Cc1cc(C)c2c(O)c3c(=O)[nH][nH]c(=O)c3nc2c1	> 395 °C
CC(C)(C)c1cc(C(O)C#Cc2ccc(C(=O)O)cc2)ccc1N1CCCC1 (stereo not drawn)	150 °C
O=C1Nc2ccccc2SC1CCCCBr (stereo not drawn)	100 °C
OC(CCc1ccccc1)c1c[nH]cn1 (stereo not drawn)	144 to 146 °C
Cc1cc(C(=S)Cl)c(Cl)cc1Cl	94 to 95 °C
CN(CCCCNC(=NCCCOc1cccc(CN2CCCCC2)c1)NC#N)CCC(c1ccc(F)cc1)c1ccccn1 (stereo not drawn)	105 to 110 °C
COc1ccc(-c2nc(C)c(NC(=O)c3nnn[nH]3)s2)cc1	205 to 207 °C
C=C(c1ccc(Cl)cc1)C1(n2ccnc2)CC1	94 to 95 °C
Cc1cc(=O)n2nc(-c3ccc(F)cc3)c(-c3ccncc3)c2[nH]1	> 280 °C
O=C(Nc1c(C(O)(C(F)(F)F)C(F)(F)F)ccc2ccccc12)c1cccc(F)c1	190 to 192 °C
NC(=O)c1nn(-c2ccc3c(c2)OCO3)c2c1CCc1ccc(NC(=O)c3cc(Cl)ncc3Cl)cc1-2	292 to 293 °C
Cc1nccc(N2CCC(CN3CCN(C(=O)c4ccc(F)cc4)CC3)CC2)n1	127 to 128 °C
CC(Cl)(Cl)C(NC(=O)c1cccc(Cl)c1)NC(=NC#N)Nc1ccccc1F (stereo not drawn)	136 to 138 °C
O=C(CCC1CCN(Cc2ccccc2)CC1)c1ccc(F)cc1	65 to 67 °C
CNc1nc(-c2cccc(N(C)C(=O)c3ccccc3)c2)c2cc(OC)c(OC)cc2n1	198 to 200 °C
COC(=O)c1cc(I)ccc1NS(C)(=O)=O	119 to 120 °C
C#CC(C)(C)N1CCC(N2CCN(CCCN3CCCCC3)C2=C(C#N)C#N)CC1	112 to 115 °C
COc1cccc(CC(=O)O)c1OCCCc1cn(-c2ccc(C)cn2)nc1C(C)C	132 to 133 °C
CCOC(=O)CC(=NNc1ccc(C(=O)O)cc1C)C(C)=O	161 to 162 °C
CC(C)(C(=O)Nc1cc(F)ccc1F)N1COC(C=O)=C(c2ccccc2)C1=O	76 to 77.5 °C
Brc1ccc2c(c1)C(c1ccccc1)OC(c1ccncc1)=N2 (stereo not drawn)	161 to 162 °C

SMILES	melting point
O=C1c2ccccc2C(=O)N1OCc1cccc(C(F)(F)F)c1	106 to 108 °C
COc1ccc(OC)n2nc(S(=O)(=O)Nc3c(F)cccc3F)nc12	319 to 320 °C
O=C(O)[C@@H]1CCN2C(=O)CC[C@H](N3C(=O)c4ccccc4C3=O)C(=O)N12	232 to 233 °C
CNc1nc(SC)nc(N(C)C)c1[N+](=O)[O-]	128 to 132 °C
Cc1nc(-c2ccc(F)cc2)n(-c2ccc(S(N)(=O)=O)cn2)n1	221 to 222 °C
CCCCCCCCCCC[C@H](C[C@H](O)[C@H](CCCCCC)C(=O)O)OCc1ccccc1	57 to 60 °C
CCCc1nn(C)c2c(=O)n(CCCOc3ccc(SC(C)(C)C(=O)O)cc3)c(C)nc12	140 to 142 °C
Cc1cccc(NC(=O)NCC2(c3ccccc3)CCCCC2)c1	145 to 147 °C
CCOCOc1cc(C)ccc1-c1cc(-c2cccc([N+](=O)[O-])c2)c(C#N)c(N)n1	148 to 149 °C
COC(=O)C(Cc1ccccc1)Oc1ccc2cc(-c3csc(-c4ccccc4)n3)ccc2c1Br (stereo not drawn)	96 to 101 °C
CCn1c(C(C)NS(=O)(=O)c2ccc(Cl)c(Cl)c2)cnc1Oc1ccc(C)cc1 (stereo not drawn)	142 to 144 °C
Cc1cccc(Nc2nc(-c3cccc(C#N)c3)c(-n3cncn3)s2)n1	236 to 237 °C
COc1ccc(C=CC(=O)c2ccc(O)c(CC(=O)O)c2)cc1	247 °C
COc1ccc(Cn2c(C)nc3c(Cl)ncnc32)cc1	121 to 123 °C
CC(C)OC(=O)c1cc(I)c(F)cc1Cl	38 to 43 °C
Cc1c(N)c(F)cc2c(=O)c(C(=O)O)cn(-c3cc(O)c(F)cc3F)c12	> 280 °C
Cc1cc(Cl)c(O)c(CN(C)C2CCCCCCC2)c1	101 °C
CS(=O)(=O)c1ccc(-n2nc(C(F)(F)F)cc2-c2ccc(-c3cscn3)cc2)cc1Cl	103 to 107 °C
CON=C(c1ncon1)c1ccccc1COc1ccc(Cl)cc1	107 to 108 °C
COC(=O)c1ccc2c(c1)N(C)C(=O)c1cccnc1N2	273 to 276 °C
COc1ccc(C(C#N)C(=O)C(=O)C(C#N)c2ccccc2)cc1 (stereo not drawn)	256 to 258 °C
O=C(CCC1CCCC1)Nc1cccc2ncccc12	135 to 138 °C
O=c1ncc(Br)cn1COCc1ccccc1	169 °C
CNC(=O)C(=NOC)c1cccc(Cl)c1COc1ccc(Sc2ccc(Cl)cc2)cn1	116 to 118 °C
Cc1ccc(-c2ccc3c(c2)C=C(C(=O)Nc2ccc(CN(C(C)C)C(C)C)cc2)CCO3)cc1	152 to 153 °C

SMILES	melting point
CCSC(C)(C)C(=O)CC(=O)Nc1cc(NC(=O)CCCOc2ccc(C(C)(C)CC)cc2C(C)(C)CC)ccc1OC	57 to 60 °C
O=C(NCCCCN1CCC(c2csc3ccccc23)CC1)c1ccc(-c2ccc(C(F)(F)F)cc2)cc1	264 °C
CC(=NO)C(=O)c1ccccc1OCc1ccccc1	78 to 80 °C
COc1ccc2c(C(=O)O)cn(C(C)C)c2c1	162 to 163 °C
Cc1cc(OC(F)F)c([N+](=O)[O-])cc1S(=O)(=O)N(C)C	125 to 126 °C
Nc1cccc(CN/C=C2\C(=O)NC(=O)c3ccc(Br)cc32)c1	214 to 215 °C
CCCc1nc2c(c(C)c(C)n3nnnc23)n1CC(C)(C)NC(=O)c1ccccc1	221 to 223 °C
COc1ccc(-c2nc(S(=O)c3ccccc3)n(C)c2-c2ccc(OC)cc2)cc1 (stereo not drawn)	114 to 115 °C
Oc1cccc2c1CCCC2n1cc[nH]c1=S (stereo not drawn)	188 to 190 °C
OCCCNC1=Nc2ccccc2C1(O)c1cccc(Cl)c1 (stereo not drawn)	164 to 165 °C
c1cncc(CC[C@H]2CNCCN2)c1	104 to 110 °C
CC(=O)OCC1OC(SCC=Cc2ccccc2)C(OC(C)=O)C(OC(C)=O)C1OC(C)=O (stereo not drawn)	113 to 114 °C
OC(CCc1cccnc1)COc1ccc(CCc2ccccc2)cc1 (stereo not drawn)	95 to 96 °C
O=C(OCC1CC1)c1ncn2c1C1C=CCN1C(=O)c1c(Cl)cccc1-2 (stereo not drawn)	189 to 190 °C
Cc1nc(-c2ccc3c(c2)OCC32C(=O)N(Cc3ccccn3)c3ccccc32)no1 (stereo not drawn)	147 to 148 °C
O=C1CC(c2ccc(O)cc2)Cc2ccccc21 (stereo not drawn)	194 to 195 °C
C[Si](C)(C)C#Cc1cnn(-c2ccnc3cc(Cl)ccc23)c1	106 to 112 °C
C=Cc1cccc(-n2cnc(-c3cnc4[nH]cc(C(=O)N[C@@H](C)C(C)(C)C)c4n3)c2)c1	253 to 257 °C
O=C1CN(c2ccccc2)C(=O)N1S(=O)(=O)c1ccc(Oc2ccccc2)cc1	157 to 158 °C
COc1ccc2c(c1)C(C(=O)N(Cc1ccc3c(c1)OCO3)c1ccc(C(C)C)cc1)CCC2 (stereo not drawn)	97 to 98 °C
NC(CO)(CO)C(=O)O	109 to 112 °C
COc1ccc2c(c1)C(=O)C(Cc1ccccn1)CO2 (stereo not drawn)	112 to 114 °C
CCCCN(CCCC)C(=O)c1cc2ccccc2c(-c2ccccc2)n1	62 °C
CNC(=O)CCc1nc(-c2ccc(Cl)cc2)co1	169 to 170 °C
O=[N+]([O-])CS(=O)(=O)c1ccc2c(c1)CCN2	139 °C

SMILES	melting point
COc1ccc(N2CCN(c3c(C)c(C)c4c(c3C)C(CN3CCCC3)C(C)(C)O4)CC2)cc1 (stereo not drawn)	94 to 96 °C
CS(=O)(=O)Nc1cccc([N+](=O)[O-])c1	237 °C
CC(C)c1c(I)sc2ncc(C#N)c(Cl)c12	177 to 179 °C
COc1ccc2c(c1)C(=O)C(Oc1cccnc1)CO2 (stereo not drawn)	116 to 117 °C
CCNc1cccc(NC(=O)COC(C)=O)c1C#N	110 to 113 °C
CCOC(=O)c1cc2n(c1)C(C)N(C(=O)OCC)c1ccccc1-2 (stereo not drawn)	125 to 127 °C
CNC(=O)N1N=C(c2ccc([N+](=O)[O-])cc2)c2cc(OC)c(Br)cc2CC1C (stereo not drawn)	224 to 226 °C
Cc1ccc(P(c2ccc(C)cc2)c2cccc3c2-c2c(cccc2P(c2ccc(C)cc2)c2ccc(C)cc2)OCCCO3)cc1	108 to 110 °C
CC1CCC(C(C)C)C(OCC(=O)OC2CC(=O)C(CCCCCCC(=O)O)=C2C=Cc2ccccc2)C1 (stereo not drawn)	103 to 104 °C
CCCCCCCCCCCCCCCCCCCCCCOC(=O)P(=O)(O)O	92 to 93 °C
CCCCC(CC)COc1cc2c3c(c4cc(OCC(CC)CCCC)c(OCC(CC)CCCC)cc4c2cc1OCC(CC)CCCC)C(=O)C=CC3=O (stereo not drawn)	105 to 107 °C
COc1ccc(Nc2cccc3c2C(=O)N([C@@]2(C)CCC(=O)NC2=O)C3=O)c(OC)c1	255 to 257 °C
O=C1CCN(Cc2ccccc2[N+](=O)[O-])CC1C(c1ccc(F)cc1)c1ccc(F)cc1 (stereo not drawn)	151 to 152 °C
O=C1N(CC2CCC2)c2ccccc2C1(O)c1ccc2c(c1)OCO2 (stereo not drawn)	124 to 125 °C
Cc1cc(=O)n2cccc(S)c2n1	240 to 241 °C
CC(C)c1cccc(C(C)C)c1OC(=O)CCC(=O)O	101 to 102 °C
CCCCOc1c(-c2ccnc3ccc(C(C)=O)cc23)cc(C(C)C)cc1C(C)C	133 °C
CCN1C(=O)C(C)(C)C(=O)N(C)c2cc(CN(CCn3cc(C)c4oc(C)cc4c3=O)C(C)c3cccnc3C)ccc21 (stereo not drawn)	169 to 170 °C
NS(=O)(=O)c1ccc(/C(=C(\CCO)C(=O)O)c2ccc(F)cc2)cc1	160 to 162 °C
Cc1ccc(Oc2ccc(NN)cc2)c(O)c1	145 to 148 °C
CC(C#N)=C1CCN(c2ccc(N3C[C@H](CNC(=O)C(Cl)Cl)OC3=O)cc2F)CC1	202 to 204 °C
CCCCc1c(OCCN2CCOCC2)c2c(OCCN3CCOCC3)cc(OCCN3CCOCC3)cc2oc1=O	131 °C
COC(=O)[C@@H]1C[C@H](NS(=O)(=O)c2ccccc2)C(=O)[C@H]2[C@@]1(C)CC[C@H]1C(=O)O[C@H](c3ccoc3)C[C@]21C	271 to 273 °C
